{"source": "patent US20160015064A1", "about": "“COMPOUNDS, COMPOSITIONS, AND METHODS FOR MODULATING SWEET TASTE” (CHROMOCELL CORPORATION, priority 2013, published 2016)", "key": {"[1]": {"tested_on": "perception of the sweet taste of an aqueous solution of sweetener", "assay": "Two-alternative forced choice sip and spit method (2AFC)", "type": "in vivo, humans", "method": "The effect of the test compounds on the perception of the sweet taste of an aqueous solution of sweetener in humans was evaluated using a two-alternative forced choice “sip and spit” method (2AFC).\nThe aqueous sweetener solutions were prepared by adding, fructose, sucrose or glucose (by weight), to water to achieve the desired concentration.\n(§1) Compounds were first prepared as a 500-fold concentrated stock solution in 100% ethanol. These concentrated stocks were then added to the aqueous sweetener solutions to result in a final ethanol concentration of 0.2%. The control (positive and negative) samples were also normalized to 0.2% ethanol. This level of ethanol was not seen to contribute any perceived sweetness.\nThe 2AFC test used for compound evaluation was a blind and randomized test where taste panelists (n=15) evaluate a pair of sweetener solutions at a time—one sample contains aqueous sweetener solution plus compound (i.e. test) while the other contains aqueous sweetener solution at higher concentration without compound (i.e. positive control). Each test sample was compared against a positive control. For example, if the test sample contained 1× sweetener concentration with compound (e.g. 5% sucrose with compound), the positive control sample contained a 1.1× sweetener concentration (e.g. 5.5% sucrose without compound).\nPanelists were instructed not to eat or drink (except water) for at least 1 h before the test. During the test, panelists were instructed to sip each sample, swirl it around their mouth and then expectorate. After tasting each sample in the pair, panelists were instructed to record the sample that is “sweeter” in taste. Panelists cleansed their palates by rinsing with water, eating a cracker and waiting for an interval of about 5 minutes. Each pair was tasted twice. All samples were tasted at ambient temperatures. Data were analyzed using binomial probabilities.\nApproximate levels of sweetness enhancement in column 5 of Table 2 were calculated as follows:\nApproximate levels of sweetness enhancement=Sweetener concentration of positive control surpassed by the test sample, divided by sweetener concentration for compound-containing sample (e.g. 1.15×=5.75% sucrose/5% sucrose)."}, "[2]": {"tested_on": "perception of sweet taste, in an aqueous solution", "assay": "Inherent sweetness assessment, difference from control sip and spit method", "type": "in vivo, humans", "conditions": "no sweetener", "method": "The aqueous sucrose solutions were prepared by adding, sucrose (by weight), to water to achieve the desired concentration.\nas §1, with “water” for “the aqueous sweetener solutions”, “(including positive control)” for “(positive and negative)”\nThe intrinsic effect of test compounds on the perception of sweet taste, in an aqueous solution, in humans was evaluated using a difference from control “sip and spit” method employing a verbal category scale.\nIn this method, panelists (n=12) evaluate one pair of samples at a time—one sample contains water plus compound (i.e. test) while the other contains water without compound (i.e. control). Panelists were instructed to first taste the un-blinded control followed by the test sample and asked to rate the size of sweetness difference between the test and control sample, using a 6 point verbal category scale:\nVerbal category scale • No difference • Slight difference • Slight/moderate difference • Moderate difference • Moderate/large difference • Very large difference\n4 blinded controls comprising of one negative control (0% sucrose) and 3 positive control samples (0.5% sucrose, 1% sucrose and 2% sucrose) were also included as part of the test to evaluate the ability of panelists to rank the difference in sweetness perception between 0.5% sucrose, 1% sucrose and 2% sucrose compared to 0% sucrose control.\nPanelists were instructed not to eat or drink (except water) for at least 1 h before the test. During the test, panelists were instructed to sip each sample, swirl it around their mouth and then expectorate. Panelists cleansed their palates by rinsing with water, eating a cracker and waiting for an interval of about 5 minutes. All samples were tasted at ambient temperatures.\nThe verbal category response for each test sample was converted into an integer numerical value, from 1 to 6 (e.g. no difference=1 and very large difference=6). Total numbers of panelist responses per integer value were plotted as a histogram. An assessment was then made, comparing mean, mode of the numerical value, and the distribution of the histogram plots, for test samples as compared to that of the positive (0.5% sucrose, 1% sucrose and 2% sucrose) and negative control (0% sucrose) sample. Inherent sweetness levels are then correlated to the positive controls as discrete bins: • Bin 1: 0% sucrose • Bin 2: >0% sucrose—<0.5% sucrose • Bin 3: 0.5% sucrose • Bin 4: >0.5% sucrose—<1% sucrose • Bin 5: 1% sucrose • Bin 6: >1% sucrose—<2% sucrose • Bin 7: 2% sucrose"}, "[3]": {"assay": "Beverage emulsion delivery systems, physical stability", "type": "physicochemical", "conditions": "NEOBEE® M-5 oil phase with Q-NATURALE®, no weighting agent", "method": "Utilizing the triacetin and NEOBEE® M-5 oil solutions described in Example 6, emulsion systems were prepared to develop a clear delivery system. A suitable emulsion system would need to have a particle size of under 100 nanometers. A series of trials were conducted in which the triacetin and NEOBEE® M-5 oil solutions were combined with a variety of matrices including preserved water (i.e., water comprising 500 ppm sodium benzoate, 400 ppm potassium sorbate and 1000 ppm citric acid), Q-[…]®, lecithin, lyso-lecithin, and citrus oil. Pre-homogenization utilizing a Silverson High Shear mixer and final homogenization utilizing a high pressure homogenizer at 20,000 psi (up to 10 passes) only achieved a particle size reduction to 146 nanometers. The emulsions were stable in beverage but were opaque. […] Therefore incorporating the compounds into a cloudy beverage emulsion or homogenizing it into a cloudy citrus (orange juice) product may be beneficial. Without being bound by theory, the opacity of the beverage would, in effect, shield the compound from the detriment of light.\nFor a standard beverage emulsion, the compounds need to be dissolved in the oil phase of the emulsion. Unfortunately, the compounds were mostly insoluble in citrus oil (orange oil 5×). […]"}, "[4]": {"conditions": "test sample 4% fructose, compound 25 ppm with positive 2AFC"}}, "data": [{"molecule": "COc1ccc(C2CC(=O)c3c(O)cccc3O2)cc1O", "note": "(single isomer, unassigned) [Compound 2, 5-hydroxy-2-(3-hydroxy-4-methoxyphenyl)chroman-4-one]", "values": [{"measurement": "Fold increase in perceived sweetness", "setting": "[1]; [4]", "result": ">1.20", "unit": "X"}, {"measurement": "Fold increase in perceived sweetness", "setting": "[1]; test sample 5% sucrose, compound 15, 25 ppm with positive 2AFC", "result": ">1.20", "unit": "X"}, {"measurement": "Fold increase in perceived sweetness", "setting": "[1]; test sample 6.5% glucose, compound 10, 20, 25 ppm with positive 2AFC", "result": ">1.15", "unit": "X"}, {"measurement": "Correlated Inherent Sweetness Assessment", "setting": "[2]; compound 10 ppm in water", "result": "0.5%-1% sucrose"}, {"measurement": "Correlated Inherent Sweetness Assessment", "setting": "[2]; compound 15 ppm in water", "result": 1, "unit": "% sucrose"}]}, {"molecule": "COc1ccc(C2CC(=O)c3c(O)cccc3O2)cc1O", "note": "(single isomer, unassigned) [Compound 3, 5-hydroxy-2-(3-hydroxy-4-methoxyphenyl)chroman-4-one]", "values": [{"measurement": "Fold increase in perceived sweetness", "setting": "[1]; [4]", "result": ">1.25", "unit": "X"}, {"measurement": "Fold increase in perceived sweetness", "setting": "[1]; test sample 5% sucrose, compound 15 ppm with positive 2AFC, positive control surpassed / test sweetener concentration", "result": ">1.20", "unit": "X"}, {"measurement": "Fold increase in perceived sweetness", "setting": "[1]; test sample 6.5% glucose, compound 25 ppm with positive 2AFC", "result": ">1.20", "unit": "X"}, {"measurement": "Physical stability of emulsion", "setting": "[3]", "result": "physically stable"}, {"measurement": "Correlated Inherent Sweetness Assessment", "setting": "[2]; compound 10 ppm in water", "result": "0.5%-1% sucrose"}, {"measurement": "Correlated Inherent Sweetness Assessment", "setting": "[2]; compound 15 ppm in water", "result": 1, "unit": "% sucrose"}]}]}
